Read-outs that look alike come from different tables or passages of the source.
Columns and labels:
Assay in all cases: NCI anticancer screen, SRB assay, 48 h
Type in all cases: cell-based, human
MCF7 (breast) = conditions: Homo sapiens
Outline: (§1)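 Sulforhodamine B protein assay read cell growth after 48 h of continuous compound exposure. Dose-response curves per cell line used at least five 10-fold-diluted concentrations, within a panel of fifty-three human lines from nine tumour types.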

HCT-15 (colon) = conditions: Homo sapiens
Outline: as §1

786-0 (renal) = conditions: Homo sapiens
Outline: as §1

[1] = system: EKVX (non-small cell lung); conditions: Homo sapiens
Outline: as §1

[2] = system: RPMI-8226 (leukemia cell line); conditions: Homo sapiens
Outline: as §1

SW-620 (colon) = conditions: Homo sapiens
Outline: as §1

OVCAR-5 (ovarian) = conditions: Homo sapiens
Outline: as §1

TK-10 (renal) = conditions: Homo sapiens
Outline: as §1

OVCAR-8 (ovarian) = conditions: Homo sapiens
Outline: as §1

MALME-3M (melanoma) = conditions: Homo sapiens
Outline: as §1

CAKI-1 (renal) = conditions: Homo sapiens
Outline: as §1

OVCAR-4 (ovarian) = conditions: Homo sapiens
Outline: as §1

UACC-62 (melanoma) = conditions: Homo sapiens
Outline: as §1

[3] = system: NCI-H322M (non-small cell lung); conditions: Homo sapiens
Outline: as §1

[4] = system: K-562 (leukemia cell line); conditions: Homo sapiens
Outline: as §1

U251 (CNS) = conditions: Homo sapiens
Outline: as §1

NCI/ADR-RES (ovarian) = conditions: Homo sapiens, NCI/ADR-RES
Outline: as §1

SK-MEL-5 (melanoma) = conditions: Homo sapiens
Outline: as §1

SF-268 (CNS) = conditions: Homo sapiens
Outline: as §1

[5] = system: NCI-H226 (non-small cell lung); conditions: Homo sapiens
Outline: as §1

[6] = system: HOP-62 (non-small cell lung); conditions: Homo sapiens
Outline: as §1

RXF 393 (renal) = conditions: Homo sapiens
Outline: as §1

UACC-257 (melanoma) = conditions: Homo sapiens
Outline: as §1

UO-31 (renal) = conditions: Homo sapiens
Outline: as §1

[7] = system: NCI-H522 (non-small cell lung); conditions: Homo sapiens
Outline: as §1

SK-OV-3 (ovarian) = conditions: Homo sapiens
Outline: as §1

HCT-116 (colon) = conditions: Homo sapiens
Outline: as §1

SNB-19 (CNS) = conditions: Homo sapiens
Outline: as §1

MDA-MB-435 (melanoma) = conditions: Homo sapiens
Outline: as §1

[8] = 48 h exposure, SRB, read-out: GI50
[9] = read-out: pGI50 (-log of molar concentration causing 50% inhibition of net cell growth) (converted)

O=C(/C=C/c1cccc(O)c1)c1cccc(-n2cc(-c3ccc(Cl)cc3)[nH]c2=O)c1 [4f, 4-(4-chlorophenyl)-1-3-[(E)-3-(3-hydroxyphenyl)-2-propenoyl]phenyl-2,3-dihydro-1H-2-imidazolone] showed a GI50 (MCF7 (breast); [8]) of 1270 nM, a GI50 (MCF7 (breast); [9]) of 1290 nM and a GI50 (HCT-15 (colon); [8]) of 2330 nM. It also gave a GI50 (HCT-15 (colon); [9]) of 2340 nM, a GI50 (786-0 (renal); [8]) of 1570 nM and a GI50 (786-0 (renal); [9]) of 1580 nM. For the same molecule, the GI50 [1, 8] was 2400 nM, the GI50 [1, 9] was 2400 nM and the GI50 [2, 8] was 1550 nM. The GI50 [2, 9] was 1550 nM, the GI50 (SW-620 (colon); [8]) was 1620 nM and the GI50 (SW-620 (colon); [9]) was 1620 nM. It also gave a GI50 (OVCAR-5 (ovarian); [8]) of 2190 nM, a GI50 (OVCAR-5 (ovarian); [9]) of 2190 nM and a GI50 (TK-10 (renal); [8]) of 2830 nM. It also gave a GI50 (TK-10 (renal); [9]) of 2820 nM, a GI50 (OVCAR-8 (ovarian); [8]) of 990 nM and a GI50 (OVCAR-8 (ovarian); [9]) of 1000 nM. It also gave a GI50 (MALME-3M (melanoma); Malme-3M, read-out: pGI50 (-log of molar concentration causing 50% inhibition of net cell growth) (converted)) of 1820 nM, a GI50 (MALME-3M (melanoma); MALME-3M, 48 h exposure, SRB, read-out: GI50) of 1830 nM and a GI50 (CAKI-1 (renal); [8]) of 1720 nM. It also gave a GI50 (CAKI-1 (renal); [9]) of 1740 nM, a GI50 (OVCAR-4 (ovarian); [8]) of 2210 nM and a GI50 (OVCAR-4 (ovarian); [9]) of 2190 nM. For the same molecule, the GI50 (UACC-62 (melanoma); [8]) was 1850 nM, the GI50 (UACC-62 (melanoma); [9]) was 1860 nM and the GI50 [3, 8] was 2520 nM. For the same molecule, the GI50 [3, 9] was 2510 nM, the GI50 ([4]; K562, 48 h exposure, SRB, read-out: GI50) was 400 nM and the GI50 ([4]; K562, read-out: pGI50 (-log of molar concentration causing 50% inhibition of net cell growth) (converted)) was 398 nM. It also gave a GI50 (U251 (CNS); U-251, 48 h exposure, SRB, read-out: GI50) of 580 nM, a GI50 (U251 (CNS); U-251, read-out: pGI50 (-log of molar concentration causing 50% inhibition of net cell growth) (converted)) of 575 nM and a GI50 (NCI/ADR-RES (ovarian); NCl/ADR-RES, 48 h exposure, SRB, read-out: GI50) of 2200 nM. For the same molecule, the GI50 (NCI/ADR-RES (ovarian); [9]) was 2190 nM, the GI50 (SK-MEL-5 (melanoma); [8]) was 1530 nM and the GI50 (SK-MEL-5 (melanoma); [9]) was 1510 nM. It also gave a GI50 (SF-268 (CNS); [8]) of 1780 nM, a GI50 (SF-268 (CNS); [9]) of 1780 nM and a GI50 [5, 8] of 2310 nM. For the same molecule, the GI50 [5, 9] was 2290 nM, the GI50 [6, 8] was 2360 nM and the GI50 [6, 9] was 2340 nM. The GI50 (RXF 393 (renal); RXF 393, 48 h exposure, SRB, read-out: GI50) was 1510 nM, the GI50 (RXF 393 (renal); RXF-393, read-out: pGI50 (-log of molar concentration causing 50% inhibition of net cell growth) (converted)) was 1510 nM and the GI50 (UACC-257 (melanoma); [8]) was 4070 nM. For the same molecule, the GI50 (UACC-257 (melanoma); [9]) was 4070 nM, the GI50 (UO-31 (renal); [8]) was 550 nM and the GI50 (UO-31 (renal); [9]) was 550 nM. For the same molecule, the GI50 [7, 8] was 1650 nM, the GI50 [7, 9] was 1660 nM and the GI50 (SK-OV-3 (ovarian); [8]) was 4210 nM. It also gave a GI50 (SK-OV-3 (ovarian); [9]) of 4170 nM, a GI50 (HCT-116 (colon); [8]) of 1230 nM and a GI50 (HCT-116 (colon); [9]) of 1230 nM. It also gave a GI50 (SNB-19 (CNS); [8]) of 1920 nM, a GI50 (SNB-19 (CNS); [9]) of 1910 nM and a GI50 (MDA-MB-435 (melanoma); [8]) of 2060 nM. It also gave a GI50 (MDA-MB-435 (melanoma); [9]) of 2040 nM.
